Experimental findings from patent US20050026833A1, “PSP-94: use for treatment of hypercalcemia and bone metastasis” (priority 2001, published 2005) are described below.

For assay [1], the system named is Mat Ly Lu-PTHrP skeletal metastasis. Put plainly: Bone histomorphometry of vertebrae (tumor volume to bone volume). It counts as in vivo, male Copenhagen rats. The protocol:
Alternatively, cell pellets (10×10^3 cells) were resuspended in 100ul saline and injected using 1 ml syringes into the left ventricle of rats anaesthetised with ketamine/xylazine cocktail. […] The time after tumor cell inoculation which was required to develop hind limb paralysis (an index of spinal cord compression due to lumbar vertebrae metastasis) was determined and percentage of starting number of animals developing hind-limb paralysis was plotted. […]
(§1) Computer-Assisted Image Analysis. Computer-assisted image analysis was carried out to quantify PTHrP immunostaining and determination of % TV/BV in the vertebral sections. […] The threshold was set by determining the positive staining of control sections and was used to automatically analyze all recorded images of all samples that were stained in the same session under identical conditions. The area of stained regions was calculated automatically by the software in each microscopic field. Pixel counts of the immunoreaction product were calculated automatically and were given as total density of the integrated immunostaining over a given area. […]

Another assay concerns PTHrP. Put plainly: PTHrP immunohistochemistry of skeletal metastasis (vertebrae). Type of assay: in vivo, male Copenhagen rats. The following applies: 100.0 ug/kg PCK3145, day 10, vs vehicle. The protocol:
For example, vertebral columns were fixed and decalcified for a period of 3 weeks. Vertebral column samples were dewaxed in xylene, and rehydrated through a graded alcohol series (100%-70%). For determining the level of expression of PTHrP by skeletal metastasis, the sections were incubated in 1% normal goat serum (Vector Laboratories Inc., Burlingame, Calif., USA) for 30 min at room temperature before treatment with the primary antibody (polyclonal antiserum against PTHrP (1-34) from rabbit) at 1: 200 dilution overnight at 4° C. Biotinylated goat anti-rabbit IgG (Vector Laboratories Inc., Burlingame, Calif., USA) was used as the secondary antibody at 1:200 for 30 min at room temperature. […]
as §1

The subject of the next assay is Mat Ly Lu-PTHrP cells. Kind of assay: DNA fragmentation in vitro (agarose gel). The following applies: PSP-94 10.0 ug/ml, after 72 hours of treatment. Type of assay: cell-based, rat. The protocol:
In order to investigate the underlying molecular mechanism of action of PSP-94 in reducing tumor growth Mat Ly Lu-PTHrP cells were cultured in the presence of PSP-94 (10.0 ug/ml) or vehicle alone for different time intervals. Genomic DNA was collected from cells cultured in the presence of vehicle alone or PSP-94. Briefly, for DNA fragmentation, Mat Ly Lu-PTHRP cells were plated in 6 well plates (Falcon Plastics, Oxnard, Calif.). Cells were treated with PSP-94 (10.0 ug/ml) for up to 72 hours. DNA from treated cells incubated with PSP-94 and cells treated with vehicle alone was collected using a Phenol:Choloroform:lsoamyl alcohol solution (50:48:2). Equal amounts of DNA were subjected to gel electrophoresis on a 2% agarose gel. DNA fragmentation was visualised by UV light using a transilluminator. More particularly, results presented in FIG. 14A show Mat Ly Lu-PTHrP cells cultured in the presence of vehicle alone or PSP-94 (10.0 ug/ml) for up to […]. DNA was isolated and run in an agarose gel, as described above.

For the molecule “E W Q T D N C E T C T C Y E T (EWQTDNCETCTCYET; PCK3145 (polypeptide 31-45))”, the “ratio of tumor volume to bone volume (TV/BV)” value in assay [1] (100.0 ug/kg PCK3145, day 10 post inoculation, vs vehicle) is “significant decrease”. In addition, the “trabecular and cortical bone destruction with compression of the spinal cord” value in assay [1] (100.0 ug/kg/day PCK3145, day 10, vs vehicle) is “significantly less”. In addition, the “PTHrP staining in Mat Ly Lu-PTHrP cells of the vertebral column (total density)” value in the assay with PTHrP is given as “significantly lower”.

B1: PSP-94: prostate secretory protein of 94 amino acids; native human seminal plasma PSP-94 (protein)
chain: SCYFIPNEGVPGDSTRKCMDLKGNKHPINSEWQTDNCETCTCYETEISCCTLVSTPVGYDKDNCQRIFKKEDCKYIVVEKKDPKKTCSVSEWII
Consider B1, for which the DNA fragmentation entry with Mat Ly Lu-PTHrP cells was “marked DNA fragmentation”.
